Experimental data published in PMC9229294, “Pyridazinones and Structurally Related Derivatives with Anti-Inflammatory Activity” (Molecules, 2022).
Where two headings read alike, the source gives them in different places.

What was measured:
[1] = target: T1, FPR2 (Homo sapiens, UniProt P25090); conditions: FPR2-transfected HL-60 cells, read-out: Ca2+ Mobilization FPR2 EC50 in HL-60 Cells, cited from earlier work
T1 construct: expressed in transfected cells; host or cells: HL-60 cells (FPR2-HL60)
T1 sequence (P25090 1-351): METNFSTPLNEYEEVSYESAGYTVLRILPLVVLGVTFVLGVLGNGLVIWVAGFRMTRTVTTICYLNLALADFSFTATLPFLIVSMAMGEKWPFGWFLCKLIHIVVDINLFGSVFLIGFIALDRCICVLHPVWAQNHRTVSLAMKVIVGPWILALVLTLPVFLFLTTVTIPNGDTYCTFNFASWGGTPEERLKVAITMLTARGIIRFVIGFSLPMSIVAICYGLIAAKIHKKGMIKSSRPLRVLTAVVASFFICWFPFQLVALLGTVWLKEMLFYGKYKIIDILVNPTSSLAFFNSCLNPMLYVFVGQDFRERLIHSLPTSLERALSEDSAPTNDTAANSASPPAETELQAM

[2] = test system: LPS-induced NF-κB activity in THP1-Blue cells; assay: Inhibition of LPS-induced NF-κB transcriptional activity, alkaline phosphatase reporter, THP1-Blue cells; format: cell-based, human; conditions: for IC50: Homo sapiens, LPS-induced NF-κB activity, human THP1-Blue cells, N.A. = no activity at 50 µM; for Observed class for inhibition of NF-κB activity: experimentally observed, Active or N.A.
Experimental: (§1) Our studies included 175 compounds that were previously synthesized and characterized at NEUROFARBA, Pharmaceutical and Nutraceutical Section, University of Florence, Italy. We previously evaluated the FPR1/FPR2 agonist activity of these compounds by evaluating their ability to induce Ca^2+ mobilization in FPR-transfected HL60 cells and human neutrophils. […] All test compounds were dissolved in DMSO at stock concentrations of 10 mM and stored at −20 °C. For primary screening assays (analysis of NF-κB activation, IL-6 production, and cytotoxicity), the following final concentrations of the compounds were used: 3.125, 6.25, 12.5, 25, and 50 µM; the final concentration of DMSO was 1% in all samples.
The activation of NF-κB was measured using an alkaline phosphatase reporter assay in human monocytic THP1-Blue cells stably transfected with a secreted embryonic alkaline phosphatase gene that is under the control of a promoter inducible by the NF-κB. The THP1-Blue cells (2 × 10^5 cells/well) were pretreated with the test compound or DMSO for 30 min, followed by an addition of 250 ng/mL LPS for 24 h. Alkaline phosphatase activity was determined in cell supernatants using a QUANTI-Blue mix (InvivoGen) and measured at 655 nm and compared with positive control samples (LPS).

[3] = test system: LPS-induced IL-6 production in MonoMac-6 cells; assay: Inhibition of LPS-induced IL-6 production in MonoMac-6 cells (ELISA); format: cell-based, human; conditions: for IC50: Homo sapiens
Experimental: as §1
A human IL-6 ELISA kit (BD Biosciences, San Jose, CA, USA) was used to measure IL-6 production. […] The cells were pretreated with the test compound or DMSO for 30 min, followed by addition of 250 ng/mL LPS for 24 h. The IC50 values for IL-6 production were calculated by plotting the percentage inhibition against the logarithm of the inhibitor concentration (at least five points).

[4] = target: T2, FPR1 (Homo sapiens, UniProt P21462); conditions: FPR1-transfected HL-60 cells, read-out: Ca2+ Mobilization FPR1 EC50 in HL-60 Cells, cited from earlier work
T2 construct: expressed in transfected cells; host or cells: HL-60 cells (FPR1-HL60)
T2 sequence (P21462 1-350): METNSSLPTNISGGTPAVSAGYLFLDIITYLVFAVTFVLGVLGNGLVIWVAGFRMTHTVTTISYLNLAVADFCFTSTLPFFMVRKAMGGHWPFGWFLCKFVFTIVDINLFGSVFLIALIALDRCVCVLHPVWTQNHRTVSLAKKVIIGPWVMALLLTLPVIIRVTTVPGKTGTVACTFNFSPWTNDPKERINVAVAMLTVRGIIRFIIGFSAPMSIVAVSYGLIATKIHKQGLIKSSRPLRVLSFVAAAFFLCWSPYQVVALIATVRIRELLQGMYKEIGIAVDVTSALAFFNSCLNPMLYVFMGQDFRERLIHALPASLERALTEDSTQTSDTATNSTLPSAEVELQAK

[5] = Cytotoxicity, CellTiter-Glo, MonoMac-6 cells; format: cell-based, human; conditions: human, MonoMac-6 cells
Experimental: as §1
(§2) The cytotoxicity was analyzed with a CellTiter-Glo Luminescent Cell Viability Assay Kit from Promega (Madison, WI, USA), according to the manufacturer’s protocol. The luminescent ATP assays are based on a luciferase enzymatic reaction which uses ATP from viable cells to generate photons. For this assay, the cells were incubated with the compounds under investigation for 24 h. After treatment, the cells were equilibrated to room temperature for 30 min, luciferase + luciferin substrate was added, and the samples were analyzed with a Fluoroscan Ascent FL (Thermo Fisher Scientific, Waltham, MA, USA). The IC50 values were calculated by plotting the percentage inhibition against the logarithm of the inhibitor concentration (at least five points).

[6] = Cytotoxicity, CellTiter-Glo, THP1-Blue cells; format: cell-based, human; conditions: human, THP1-Blue cells; N.T. = no cytotoxicity at 50 µM; read-out: Cytotoxicity IC50 in THP1-Blue Cells
Experimental: as §1, §2

[7] = Table 3, as reported previously (see Table 1)
[8] = MONO-MAC-6, read-out: Inhibition of IL-6 Production IC50 in MonoMac-6 Cells
[9] = MONO-MAC-6, 24 h, read-out: IC50, LPS-induced IL-6 production

With `CC[C@H](C(=O)Nc1ccc(Br)cc1)n1nc(C)cc(Cc2cccc(OC)c2)c1=O` [Compound 94] as the compound, how does the EC50 ([1]; agonist activity from Table 1) read?
The EC50 was 2.3 µM.

What about the EC50 [1, 7] of the same compound?
The EC50 was 2.3 µM.

And the IC50 [2]?
The IC50 was 30.8 ± 6.7 µM.

What about the IC50 [3, 8] of the same compound?
The IC50 was 14.3 ± 2 µM.

And the EC50 ([4]; agonist activity from Table 1)?
Its EC50 is 2.8 µM.

What about the EC50 [4, 7] of the same compound?
Its EC50 is 2.8 µM.

And the IC50 at 24 h [5]?
Its IC50 at 24 h is > 50 µM.

And the IC50 at 24 h [6]?
Its IC50 at 24 h is > 50 µM.

Which EC50 ([1]; agonist activity from Table 1) does the source give for `CC[C@@H](C(=O)Nc1ccc(Br)cc1)n1nc(C)cc(Cc2cccc(OC)c2)c1=O` [Compound 95] here?
Its EC50 is 22.2 µM.

What about the EC50 [1, 7] of the same compound?
The EC50 was 22.2 µM.

And the IC50 [2]?
The IC50 was 12.1 ± 2.4 µM.

What about the IC50 [3, 8] of the same compound?
The IC50 was 9.8 ± 1 µM.

What about the EC50 ([4]; agonist activity from Table 1) of the same compound?
Its EC50 is 13.4 µM.

What about the EC50 [4, 7] of the same compound?
Its EC50 is 13.4 µM.

And the IC50 at 24 h [5]?
The IC50 at 24 h was > 50 µM.

What about the IC50 at 24 h [6] of the same compound?
The IC50 at 24 h was > 50 µM.

With `CCC[C@H](C(=O)Nc1ccc(Br)cc1)n1nc(C)cc(Cc2cccc(OC)c2)c1=O` [Compound 98] as the compound, how does the EC50 ([1]; agonist activity from Table 1) read?
The EC50 was 0.84 µM.

And the EC50 [1, 7]?
The EC50 was 0.84 µM.

What about the IC50 [2] of the same compound?
The IC50 was 10.6 ± 2.3 µM.

What about the IC50 [3, 8] of the same compound?
The IC50 was 5.6 ± 0.3 µM.

And the EC50 ([4]; agonist activity from Table 1)?
Its EC50 is 3 µM.

What about the EC50 [4, 7] of the same compound?
Its EC50 is 3 µM.

And the IC50 at 24 h [5]?
Its IC50 at 24 h is > 50 µM.

What about the IC50 at 24 h [6] of the same compound?
The IC50 at 24 h was > 50 µM.

With `CC[C@](C)(C(=O)Nc1ccc(Br)cc1)n1nc(C)cc(Cc2cccc(OC)c2)c1=O` [Compound 102] as the compound, how does the EC50 ([1]; agonist activity from Table 1) read?
The EC50 was 13.7 µM.

What about the EC50 [1, 7] of the same compound?
Its EC50 is 13.7 µM.

What about the IC50 [2] of the same compound?
The IC50 was 22.1 ± 1.6 µM.

And the IC50 [3, 8]?
Its IC50 is 19 ± 3.1 µM.

What about the EC50 ([4]; agonist activity from Table 1) of the same compound?
The EC50 was 4.5 µM.

And the EC50 [4, 7]?
The EC50 was 4.5 µM.

And the IC50 at 24 h [5]?
The IC50 at 24 h was > 50 µM.

What about the IC50 at 24 h [6] of the same compound?
The IC50 at 24 h was > 50 µM.

What does the source list for `CC[C@@](C)(C(=O)Nc1ccc(Br)cc1)n1nc(C)cc(Cc2cccc(OC)c2)c1=O` [Compound 103]?
EC50 ([1]; agonist activity from Table 1): > 50 µM; EC50 [1, 7]: > 50 µM; IC50 [2]: 16.6 ± 0.6 µM; IC50 [3, 8]: 7.3 ± 1.2 µM; EC50 ([4]; agonist activity from Table 1): 7 µM; EC50 [4, 7]: 7 µM; IC50 at 24 h [5]: > 50 µM; IC50 at 24 h [6]: > 50 µM

Which EC50 ([1]; agonist activity from Table 1) does the source give for `COc1cccc(-n2ccc(=O)n(CC(=O)Nc3ccc(Br)cc3)c2=O)c1` [Compound 150] here?
The EC50 was 3.6 µM.

What about the IC50 [2] of the same compound?
The IC50 was 21.4 ± 3.5 µM.

What about the “Observed class for inhibition of NF-κB activity” value [2] of the same compound?
Its value is “Active”.

What about the IC50 [3, 9] of the same compound?
Its IC50 is < 10 µM.

What about the IC50 [3, 8] of the same compound?
Its IC50 is 4 ± 1.2 µM.

And the EC50 [4, 7]?
The EC50 was 4.3 µM.

And the IC50 at 24 h [5]?
Its IC50 at 24 h is > 50 µM.

What about the IC50 at 24 h [6] of the same compound?
Its IC50 at 24 h is > 50 µM.

Which results are given for `O=C(Cn1c(=O)ccn(-c2ccccc2)c1=O)Nc1ccc(Br)cc1` [Compound 153]?
EC50 [1, 7]: 8.9 µM; IC50 [2]: 20.8 ± 0.5 µM; Observed class for inhibition of NF-κB activity [2]: Active; IC50 [3, 9]: < 10 µM; IC50 [3, 8]: 10.7 ± 0.1 µM; EC50 ([4]; agonist activity from Table 1): 12.5 µM; IC50 at 24 h [5]: > 50 µM; IC50 at 24 h [6]: > 50 µM

Which results are given for `CCCn1cc(-c2cccc(OC)c2)c(=O)n(CC(=O)Nc2ccc(Br)cc2)c1=O` [Compound 154]?
EC50 ([1]; agonist activity from Table 1): 2.4 µM; IC50 [2]: 25.6 ± 2.3 µM; Observed class for inhibition of NF-κB activity [2]: Active; IC50 [3, 8]: 2.6 ± 0.3 µM; EC50 ([4]; agonist activity from Table 1): 3.3 µM; IC50 at 24 h [5]: > 50 µM; IC50 at 24 h [6]: > 50 µM

With `O=C(Cn1c(-c2ccc([N+](=O)[O-])cc2)csc1=O)Nc1ccc(Br)cc1` [Compound 169] as the compound, how does the EC50 ([1]; agonist activity from Table 1) read?
The EC50 was > 50 µM.

What about the EC50 [1, 7] of the same compound?
The EC50 was > 50 µM.

What about the IC50 [2] of the same compound?
The IC50 was 19.2 ± 0.1 µM.

And the “Observed class for inhibition of NF-κB activity” value [2]?
Its value is “Active”.

And the IC50 [3, 8]?
The IC50 was 3.2 ± 0.4 µM.

And the “Inhibition of LPS-induced IL-6 production (in words)” value ([3]; MonoMac-6 cells, 250 ng/mL LPS, 24 h)?
Its value is “potent IL-6 inhibitors”.

And the EC50 [4, 7]?
The EC50 was 9.1 µM.

And the IC50 at 24 h [5]?
The IC50 at 24 h was > 50 µM.

What about the IC50 at 24 h [6] of the same compound?
The IC50 at 24 h was > 50 µM.
